Experimental data from US5693628A, “11-benzaldoxime-estra-diene derivatives, methods for their production and pharmaceuticals containing these compounds” (priority 1994, dated 1997).

How the values were obtained:
[1] = molecular target: T1, progesterone receptor (Oryctolagus cuniculus, UniProt P06186); test: relative molar bonding affinity to progesterone receptor (competitive bonding); type: binding; conditions: progesterone = 100%; uterine cytosol of estradiol-primed rabbit; 3H-ORG 2058, 5 nM; 18 h, 0-4° C.
T1 construct: uterine cytosol of the estradiol-primed rabbit; from tissue; host or cells: uterus (cytosol) of estradiol-primed rabbit
T1 sequence (P06186 1-930): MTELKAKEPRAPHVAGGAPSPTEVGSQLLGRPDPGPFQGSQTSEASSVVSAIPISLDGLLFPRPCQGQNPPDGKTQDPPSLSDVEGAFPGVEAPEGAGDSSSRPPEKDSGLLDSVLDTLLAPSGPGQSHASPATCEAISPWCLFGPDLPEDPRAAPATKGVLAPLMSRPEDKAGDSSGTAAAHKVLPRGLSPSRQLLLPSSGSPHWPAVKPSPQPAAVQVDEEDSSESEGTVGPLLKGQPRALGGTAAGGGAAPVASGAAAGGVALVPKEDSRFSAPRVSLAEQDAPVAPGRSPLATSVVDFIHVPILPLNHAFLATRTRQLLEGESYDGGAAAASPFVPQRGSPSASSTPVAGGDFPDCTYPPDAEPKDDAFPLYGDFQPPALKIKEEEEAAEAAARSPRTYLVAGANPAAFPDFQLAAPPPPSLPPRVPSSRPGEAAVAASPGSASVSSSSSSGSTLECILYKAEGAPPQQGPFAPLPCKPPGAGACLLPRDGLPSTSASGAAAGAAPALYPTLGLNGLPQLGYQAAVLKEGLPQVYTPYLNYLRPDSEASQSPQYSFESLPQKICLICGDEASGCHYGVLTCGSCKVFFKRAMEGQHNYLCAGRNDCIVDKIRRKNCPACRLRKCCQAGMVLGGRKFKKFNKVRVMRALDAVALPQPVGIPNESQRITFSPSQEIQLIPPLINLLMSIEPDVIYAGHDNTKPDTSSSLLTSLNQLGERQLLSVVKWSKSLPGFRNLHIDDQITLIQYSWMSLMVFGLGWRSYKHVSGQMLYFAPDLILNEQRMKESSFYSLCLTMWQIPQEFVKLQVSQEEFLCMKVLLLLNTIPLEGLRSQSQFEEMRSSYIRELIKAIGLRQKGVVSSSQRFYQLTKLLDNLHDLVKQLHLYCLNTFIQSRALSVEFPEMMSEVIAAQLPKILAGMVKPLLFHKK
Method: (§1) Measurement of bonding affinity for receptors
(§2) Receptor bonding affinity was determined by competitive bonding of a specifically binding ^3 H labelled hormone (tracer) and the compound to be tested to receptors in the cytosol from animal target organs. It was tried to obtain receptor saturation and a balanced reaction. The following incubation conditions were selected:
Progesterone receptor: uterine cytosol of the estradiol-primed rabbit, kept at -30° C. in TED buffer (20 mM Tris/HCl, pH 7.4; 1 mM ethylene diamine tetraacetate, 2 mM dithio threitol) with 250 mM of saccharose.
(§3) After an incubation period of 18 hours at 0°-4° C., bonded and free steroid was separated by mixing in active carbon/dextrane (1%/0.1%), centrifuging off and measuring the bonded ^3 H activity in the supernatant.
(§4) The IC50 for the compound to be tested and for the reference substance were determined from measurements in series of concentrations.

[2] = molecular target: T2, glucocorticoid receptor (Rattus norvegicus, UniProt P06536); test: relative molar bonding affinity to glucocorticoid receptor (competitive bonding); type: binding; conditions: dexamethasone = 100%; thymus cytosol of adrenalectomized rat; 3H-dexamethasone, 20 nM; 18 h, 0-4° C.
T2 construct: thymus cytosol of the adrenalectomized rat; from tissue; host or cells: thymus (cytosol) of adrenalectomized rat
T2 sequence (P06536 1-795): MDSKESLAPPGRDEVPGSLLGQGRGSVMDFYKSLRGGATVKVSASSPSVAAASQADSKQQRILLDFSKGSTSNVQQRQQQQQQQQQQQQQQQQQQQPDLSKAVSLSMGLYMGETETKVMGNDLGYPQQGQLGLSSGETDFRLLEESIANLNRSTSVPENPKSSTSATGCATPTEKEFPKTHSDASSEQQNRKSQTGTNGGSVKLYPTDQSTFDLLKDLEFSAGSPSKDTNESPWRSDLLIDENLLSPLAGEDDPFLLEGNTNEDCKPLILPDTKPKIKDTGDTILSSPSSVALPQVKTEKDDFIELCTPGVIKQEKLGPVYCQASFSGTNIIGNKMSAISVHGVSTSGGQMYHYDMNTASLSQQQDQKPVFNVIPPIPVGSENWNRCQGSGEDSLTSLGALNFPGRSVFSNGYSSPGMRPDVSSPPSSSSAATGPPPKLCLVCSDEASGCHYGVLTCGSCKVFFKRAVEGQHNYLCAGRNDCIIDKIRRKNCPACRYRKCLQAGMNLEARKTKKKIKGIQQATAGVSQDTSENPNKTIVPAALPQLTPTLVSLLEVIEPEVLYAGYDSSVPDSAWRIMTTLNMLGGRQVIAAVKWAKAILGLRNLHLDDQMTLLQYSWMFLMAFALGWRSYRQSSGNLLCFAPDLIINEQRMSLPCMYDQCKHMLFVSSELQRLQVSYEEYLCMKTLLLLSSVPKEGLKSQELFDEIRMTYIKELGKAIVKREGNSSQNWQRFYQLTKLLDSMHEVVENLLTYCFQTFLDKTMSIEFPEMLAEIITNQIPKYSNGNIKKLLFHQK
Method: as §1, §2
Glucocorticoid receptor: thymus cytosol of the adrenalectomized rat, thymi kept at -30° C., buffer: TED. Tracer: ^3 H-dexamethasone, 20 nM; reference substance: dexamethasone.
as §3, §4

[3] = molecular target: T3, oestrogen receptor (Oryctolagus cuniculus, UniProt G1SML6); test: relative molar bonding affinity to oestrogen receptor (competitive bonding); type: binding; conditions: estradiol = 100%; uterine cytosol of immature rabbit; 3H-ethinyl estradiol, 3 nM; 18 h, 0-4° C.
T3 construct: uterine cytosol of the immature rabbit; from tissue; host or cells: uterus (cytosol) of immature rabbit
T3 sequence (G1SML6 1-598): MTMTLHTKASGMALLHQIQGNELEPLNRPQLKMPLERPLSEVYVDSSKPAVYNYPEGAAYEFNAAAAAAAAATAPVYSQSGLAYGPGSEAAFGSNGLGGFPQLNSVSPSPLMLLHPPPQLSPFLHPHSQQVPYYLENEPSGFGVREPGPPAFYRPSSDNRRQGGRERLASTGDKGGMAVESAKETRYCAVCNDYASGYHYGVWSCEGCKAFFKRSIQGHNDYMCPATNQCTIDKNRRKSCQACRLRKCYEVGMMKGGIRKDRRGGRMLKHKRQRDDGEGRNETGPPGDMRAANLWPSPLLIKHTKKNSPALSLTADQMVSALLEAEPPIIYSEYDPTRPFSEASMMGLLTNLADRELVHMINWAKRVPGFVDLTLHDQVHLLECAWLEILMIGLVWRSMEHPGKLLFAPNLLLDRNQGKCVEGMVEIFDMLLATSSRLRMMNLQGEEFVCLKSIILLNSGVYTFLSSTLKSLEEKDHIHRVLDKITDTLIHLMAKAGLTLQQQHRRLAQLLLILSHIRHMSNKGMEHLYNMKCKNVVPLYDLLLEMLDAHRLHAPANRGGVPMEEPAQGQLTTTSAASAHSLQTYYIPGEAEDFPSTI
Method: as §1, §2
Oestrogen receptor: uterine cytosol of the immature rabbit, kept at -30° C. in TED buffer with 250 mM of saccharose. Tracer: ^3 H-ethinyl estradiol, 3 nM; reference substance: 17β-estradiol.
as §3
The IC50 for the compound to be tested and for the reference substance were determined from measurements in series of concentrations. The quotient of both values (×100%) is the relative molar bonding affinity.

[4] = tested on: early gravidity in the rat; test: Early abortive effect / inhibition of early gravidity in the rat; type: in vivo; conditions: 5th to 7th day of pregnancy; for complete gravidity inhibition % / complete gravidity inhibition N*/N (females not pregnant/inseminated females): empty uteri
Method: Inhibition of early gravidity in the rat
Female rats are mated in the pro-oestrus. If semen is found in the vaginal smear on the next day, this day is counted as day 1 (=d1) of the gravidity. Treatment with the test substance or vehicle is applied on d5-d7, autopsy is carried out on d9. The substances are injected subcutaneously in 0.2 ml of vehicle (benzyl benzoate/castor oil 1+4).

[5] = tested on: uterine weight in cyclic guinea pigs; test: Influence on uterine weight in cyclic guinea pigs; type: in vivo, guinea pig
Source text: FIG. 1. is a chart showing a comparison of the influence on uterine weight in cyclic guineau pigs when treated with the antigestagen agents RU 486, a control (the vehicle), and a compound of the present invention, J 867 (as prepared in accordance with Example 1).
FIG. 1 compares the influence of antigestagen treatment of cyclic guinea pigs on uterine weights for J 867 and RU 486.
Treatment of female guinea pigs with antigestagen
Treatment of adult female guinea pigs from day 10 to day 18 of the cycle (autopsy). Administration of the specified doses using subcutaneous osmotic pumps (Type 2 ML1 ALZET). Vehicle: […] propylene glycol/24 hrs.

SMILES	relative molar bonding affinity (RBA) to progesterone receptor [1] [%]	relative molar bonding affinity (RBA) to glucocorticoid receptor [2] [%]	relative molar bonding affinity (RBA) to oestrogen rec. [3] [%]	other results
COC[C@]1(OC)CC[C@H]2[C@@H]3CCC4=CC(=O)CCC4=C3[C@@H](c3ccc(C=NOC)cc3)C[C@@]21C [Example 2, 11β-[4-(methoximinomethyl)phenyl]-17β-methoxy-17α-methoxymethyl-estra-4,9-diene-3-on]	136	82	< 0.1	
COC[C@]1(OC)CC[C@H]2[C@@H]3CCC4=CC(=O)CCC4=C3[C@@H](c3ccc(C=NOC(C)=O)cc3)C[C@@]21C [Example 3, 11β-[4-(acetyloximinomethyl)phenyl]-17β-methoxy-17α-methoxymethyl-estra-4,9-diene-3-on]	236	73	< 0.1	
CCOC(=O)ON=Cc1ccc([C@H]2C[C@@]3(C)[C@@H](CC[C@]3(COC)OC)[C@@H]3CCC4=CC(=O)CCC4=C32)cc1 [Example 4]	294	66	< 0.1	
C[C@]12C[C@H](c3ccc(C=NO)cc3)C3=C4CCC(=O)C=C4CC[C@H]3[C@@H]1CC[C@@]2(O)CCl [Example 5, 17α-chloromethyl-11β-[4-(hydroximinomethyl)phenyl]-17β-hydroxy-estra-4,9-diene-3-on]	90	32	< 0.1	
CC#C[C@]1(O)CC[C@H]2[C@@H]3CCC4=CC(=O)CCC4=C3[C@@H](c3ccc(N(C)C)cc3)C[C@@]21C [RU 486, Mifepristone, reference compound]		685		complete gravidity inhibition % ([4]; 0.3 mg/animal/day s.c.): 0%; complete gravidity inhibition N*/N (females not pregnant/inseminated females) ([4]; 0.3 mg/animal/day s.c.): 0/5; complete gravidity inhibition % ([4]; 1.0 mg/animal/day s.c.): 40%; complete gravidity inhibition N*/N (females not pregnant/inseminated females) ([4]; 1.0 mg/animal/day s.c.): 2/5; complete gravidity inhibition % ([4]; 3.0 mg/animal/day s.c.): 100%; complete gravidity inhibition N*/N (females not pregnant/inseminated females) ([4]; 3.0 mg/animal/day s.c.): 5/5; ED 50 ([4]; s.c., graphic determination): 1.3 mg/animal/day; uterine weights of cyclic guinea pigs, high dose ([5]; 6 mg/24 hrs, s.c. osmotic pump, day 10 to 18 of cycle): reduce the uterine weights of the treated animals; uterine weights in the anovulatorial cycle in guinea pigs ([5]; doses at which RU 486 increases uterine weights, compared with control animals): increases uterine weights; uterine weights of cyclic guinea pigs, low dose ([5]; low dosis, s.c. osmotic pump, day 10 to 18 of cycle): slight gain in uterine weights
CN(C)c1ccc([C@H]2C[C@]3(C)[C@@H](CC[C@]3(O)CCCO)[C@@H]3CCC4=CC(=O)CCC4=C32)cc1 [ZK 98299, Onapristone, reference compound]	22	39		
